Assays:
mKCNQ2 channels = target: T1, mKCNQ2 channels (Mus musculus, UniProt Q9Z351); test: Whole-cell patch-clamp recordings of mKCNQ2 currents; type: cell-based; settings: HEK 293 stable cell line expressing mKCNQ2; for EC50: @ −40 mV, room temperature; for Imax (%): maximal current from Hill-type fit
T1 construct: expressed in transfected cells
Method: Whole-cell patch-clamp recordings were made from an HEK 293 stable cell line expressing mKCNQ2 channels, maintained in culture for 1-2 days. Patch pipettes had initial resistances of 2.5-4 MQ. Currents were recorded with an EPC9 amplifier (HEKA, Lambrecht, Germany) controlled with software (Pulse, HEKA) run on a standard lab PC. Series resistance compensation was used during current recording, and set at 80%. The series resistance (R) and cell capacitance (C) were determined electronically by subtracting the capacitive currents at the onset and offset of a 5 mV voltage step. The cancellation of wholecell capacitive transients was virtually complete in all cells. Analog current signals were low-pass filtered at 2.9 kHz using a four-pole Bessel filter −3 dB) and stored on a local network server computer at a sampling rate of 1.5 kHz. All recordings were performed at room temperature (20-22° C.). The pipette solution contained (mM): KCl, 150; CaCl2, 2.5; EGTA, 5; MgCl2, 1; HEPES, 10; pH to 7.3 with KOH, and Osmolality of 290-300 mOsm. The extracellular solution contained (mM): NaCl, 140; KCl, 2.5; CaCl2, 2.5; MgCl2, 1; glucose, 10; HEPES, 10; pH to 7.3 with NaOH, and Osmolality of 305-310 mOsm
Concentration response data were generated by measuring the difference in the steady-state amplitude of current in the presence of compound at the end of a 600 ms voltage-clamp step from a holding potential of −80 mV. The concentration-response data were fitted with Hill-type equations: I=Imax/(1+EC50/[A]^nH), where I is the steady-state current at a given concentration of agonist [A]; and Imax, EC50 and nH are parameters estimated from the curve fit. In some cases the concentration-response data were fitted with equations consisting of the sum of two Hill-type components. Current-voltage (IN) relationships for agonist-evoked currents were obtained by performing 600 ms voltage steps (−110 mV to +40 mV) in the absence and presence of agonist.

[1] = tested on: nerve injury-induced tactile allodynia; test: Chung model of neuropathic pain (Chung surgery and von Frey test); type: in vivo, Sprague Dawley rats; settings: i.v., rat, von Frey thresholds over 90 min, % MPE (Drug AUC) − % MPE (Vehicle AUC)
Method: To test agents for activity against peripheral mononeuropathy nerve injury-induced tactile allodynia, male Sprague Dawley rats (wt. 120-160 g) were surgically prepared with unilateral tight ligation of spinal nerves L5 and L6 following the method of Kim and Chung (Kim S. H., Chung J. M. (1992) Pain, September; 50(3):355-63). After 3-4 weeks recovery, paw withdrawal to light touch was assessed as described by Chaplan et al. (Chaplan S. R., et al., (1994) J. Neurosci Methods, July; 53(1):55-63). In brief, rats are placed in a plastic cage with a wire mesh bottom and allowed to acclimate for 15-30 minutes, until cage exploration and grooming stops. […] After acclimation, baseline von Frey thresholds were assessed for the injured hindpaw at −15 min. […] Following drug administration, von Frey thresholds are measured at 15, 30, 60 and 90 min. Data were analyzed by a 2-way repeated measures analysis of variance followed by Dunnett's test (p<0.05). […]
Reversal of neuropathic pain behavior may be expressed as a percentage (0-100%) of the maximum possible effect, over and above the vehicle effects. […]
For example, a compound which immediately reversed neuropathic pain behavior to normal levels, such that animals only responded to the highest von Frey filament (15 g), and maintained normal levels through out the post-drug testing period (90 min) would be calculated as Δ% MPE=100%.

T1 sequence (Q9Z351 whole entry): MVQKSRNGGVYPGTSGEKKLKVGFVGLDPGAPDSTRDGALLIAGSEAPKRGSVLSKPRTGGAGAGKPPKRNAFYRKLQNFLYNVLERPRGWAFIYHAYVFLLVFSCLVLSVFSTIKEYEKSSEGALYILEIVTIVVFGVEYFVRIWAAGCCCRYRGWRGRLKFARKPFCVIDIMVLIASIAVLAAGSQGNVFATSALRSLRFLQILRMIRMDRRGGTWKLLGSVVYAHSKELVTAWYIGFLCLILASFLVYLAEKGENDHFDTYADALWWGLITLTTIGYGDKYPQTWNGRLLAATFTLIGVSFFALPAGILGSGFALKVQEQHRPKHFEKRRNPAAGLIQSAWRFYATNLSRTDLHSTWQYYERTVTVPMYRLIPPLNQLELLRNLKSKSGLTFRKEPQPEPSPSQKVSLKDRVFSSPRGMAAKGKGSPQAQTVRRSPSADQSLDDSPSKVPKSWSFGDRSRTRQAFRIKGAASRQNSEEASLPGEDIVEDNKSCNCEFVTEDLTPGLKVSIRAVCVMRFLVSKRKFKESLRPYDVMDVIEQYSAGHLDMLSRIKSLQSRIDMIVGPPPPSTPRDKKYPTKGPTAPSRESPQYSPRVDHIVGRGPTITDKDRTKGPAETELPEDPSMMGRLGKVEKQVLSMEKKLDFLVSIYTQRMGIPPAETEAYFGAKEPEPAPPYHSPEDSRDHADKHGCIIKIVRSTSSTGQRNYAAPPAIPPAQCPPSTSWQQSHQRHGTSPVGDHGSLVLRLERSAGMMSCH

| Molecule | EC50 (mKCNQ2 channels) | Imax (%) (mKCNQ2 channels) | AUC (Δ % MPE) ([1]; 10 mg/kg) | AUC (Δ % MPE) ([1]; 100 mg/kg) |
| --- | --- | --- | --- | --- |
| C[C@H](NC(=O)/C=C/c1cc(F)ccc1F)c1cccc(Oc2ccccn2)c1 [Example 9, (S)-3-(2,5-Difluoro-phenyl)-N-{1-[3-(pyridin-2-yl-oxy)-phenyl]-ethyl}-acryl-amide] | 0.0012 µM | 200% | – | – |
| C[C@H](NC(=O)/C=C/c1ccccc1F)c1cccc(Oc2cccnc2)c1 [Example 15, (S)-3-(2-Fluoro-phenyl)-N-{1-[3-(py-ridin-3-yloxy)-phen-yl]-ethyl}-acrylamide] | 0.198 µM | 812% | 47 (10 mg/kg, i.v.) Δ % MPE | – |
| C[C@H](NC(=O)/C=C/c1cc(F)ccc1F)c1cccc(Oc2ccncc2)c1 [Example 45, (S)-3-(2,5-Difluoro-phenyl)-N-{1-[3-(pyridin-4-yl-oxy)-phenyl]-ethyl}-acryl-amide] | 0.11 µM | 784% | – | – |
| NCC1(CC(=O)O)CCCCC1 [Gabapentin, gabapentin, reference compound] | – | – | – | 50 (100 mg/kg, i.v.) Δ % MPE |
| (S)-4-Phenyl)-N-[1-(3-py- ridin-3-yl-phenyl)-eth- yl]-butyramide [Example 25] | 0.001 µM | 172% | – | – |
